Data reported in US11040981B2, “Pyrrolotriazine compounds and methods of inhibiting TAM kinases” (Syros Pharmaceuticals, Inc., priority 2017, dated 2021).

What was measured:
AXL = target: T1, AXL (Homo sapiens, UniProt P30530); test: TR-FRET kinase activity assay, AXL; type: biochemical; settings: ATP at Km, 60 minutes
T1 sequence (P30530 26-894): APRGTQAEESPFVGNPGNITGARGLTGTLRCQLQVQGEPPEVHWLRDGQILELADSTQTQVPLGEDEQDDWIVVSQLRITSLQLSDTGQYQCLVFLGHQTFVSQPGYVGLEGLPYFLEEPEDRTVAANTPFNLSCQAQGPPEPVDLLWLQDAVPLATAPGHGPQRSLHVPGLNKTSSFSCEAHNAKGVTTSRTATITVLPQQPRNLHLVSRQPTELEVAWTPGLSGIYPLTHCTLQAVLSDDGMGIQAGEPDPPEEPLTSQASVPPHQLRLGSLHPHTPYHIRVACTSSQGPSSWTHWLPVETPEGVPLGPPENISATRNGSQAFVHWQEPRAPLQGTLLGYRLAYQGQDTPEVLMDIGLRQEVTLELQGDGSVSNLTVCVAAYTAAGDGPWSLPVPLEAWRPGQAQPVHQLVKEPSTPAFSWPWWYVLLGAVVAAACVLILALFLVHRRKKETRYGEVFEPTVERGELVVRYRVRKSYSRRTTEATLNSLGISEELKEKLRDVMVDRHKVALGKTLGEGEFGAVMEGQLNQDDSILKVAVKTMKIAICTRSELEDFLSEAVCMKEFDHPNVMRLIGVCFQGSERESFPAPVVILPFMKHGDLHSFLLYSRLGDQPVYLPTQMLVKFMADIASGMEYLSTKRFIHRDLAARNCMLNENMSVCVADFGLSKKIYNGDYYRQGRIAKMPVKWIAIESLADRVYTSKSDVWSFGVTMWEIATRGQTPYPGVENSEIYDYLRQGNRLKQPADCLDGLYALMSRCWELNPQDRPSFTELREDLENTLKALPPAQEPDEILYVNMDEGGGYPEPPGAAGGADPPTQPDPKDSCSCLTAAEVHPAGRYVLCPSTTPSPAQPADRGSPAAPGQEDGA
In short: (§1)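 IC50 reflects the drop in TR-FRET between Eu anti-phosphotyrosine antibody and labelled peptide after a 60-minute room-temperature reaction. Buffer was 50 mM HEPES pH 7.5 with 10 mM MgCl2, 1 mM EGTA, 0.01% Brij 35 and 1 mM DTT, with ATP at Km per enzyme and EDTA quench.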

MERTK = target: T2, MERTK (Homo sapiens, UniProt Q12866); test: TR-FRET kinase activity assay, MERTK; type: biochemical; settings: for IC50: TR-FRET activity assay, ATP at Km, 60 minutes, read-out: Mer IC50; for FLT3/Mer ratio (FLT3 IC50/Mer IC50): ratio of Mer to FLT3: FLT3 IC50/Mer IC50
T2 sequence (Q12866 21-999): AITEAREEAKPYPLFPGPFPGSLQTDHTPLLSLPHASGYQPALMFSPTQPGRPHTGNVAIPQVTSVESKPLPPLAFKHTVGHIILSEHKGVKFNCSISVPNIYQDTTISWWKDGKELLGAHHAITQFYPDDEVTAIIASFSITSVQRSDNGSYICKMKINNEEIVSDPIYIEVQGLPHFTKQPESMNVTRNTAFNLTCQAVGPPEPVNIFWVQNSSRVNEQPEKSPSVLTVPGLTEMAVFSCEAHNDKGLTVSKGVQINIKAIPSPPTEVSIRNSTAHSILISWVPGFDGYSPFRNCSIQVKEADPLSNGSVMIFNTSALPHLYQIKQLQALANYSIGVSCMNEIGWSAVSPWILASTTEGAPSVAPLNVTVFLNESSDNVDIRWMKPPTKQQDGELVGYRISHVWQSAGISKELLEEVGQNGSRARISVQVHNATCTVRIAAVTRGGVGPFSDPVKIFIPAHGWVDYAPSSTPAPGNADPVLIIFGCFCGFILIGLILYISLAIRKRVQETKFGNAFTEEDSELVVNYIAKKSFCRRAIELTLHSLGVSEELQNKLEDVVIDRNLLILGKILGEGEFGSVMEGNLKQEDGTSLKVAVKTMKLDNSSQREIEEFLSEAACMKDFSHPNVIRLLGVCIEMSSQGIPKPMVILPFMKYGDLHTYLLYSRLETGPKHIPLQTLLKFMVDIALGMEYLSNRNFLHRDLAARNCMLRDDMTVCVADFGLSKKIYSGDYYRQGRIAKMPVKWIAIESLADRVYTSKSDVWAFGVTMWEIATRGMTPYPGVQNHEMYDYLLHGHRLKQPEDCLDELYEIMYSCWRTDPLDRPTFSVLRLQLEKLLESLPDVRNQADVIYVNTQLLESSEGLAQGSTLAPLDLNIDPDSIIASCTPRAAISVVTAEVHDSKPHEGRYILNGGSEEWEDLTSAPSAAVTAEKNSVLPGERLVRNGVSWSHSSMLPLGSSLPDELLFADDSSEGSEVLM
In short: as §1

| Structure (SMILES) | IC50 (AXL) [nM] | IC50 (MERTK) [nM] | FLT3/Mer ratio (FLT3 IC50/Mer IC50) (MERTK) |
| --- | --- | --- | --- |
| C[C@@H](CC(F)(F)F)Nc1ncc2c(-c3cn[nH]c3)cc([C@H]3CC[C@H](O)CC3)n2n1 [Compound 276] | ≤ 100 | ≤ 100 | +++ (“+++” represents a ratio of >100) |
| C[C@@H](CC(F)(F)F)Nc1ncc2c(-c3cnn(CCS(C)(=O)=O)c3)cc([C@H]3CC[C@H](O)CC3)n2n1 [Compound 288] | ≤ 100 | ≤ 100 | ++ (“++” represents a ratio of between 10 and 100) |
| CNS(=O)(=O)c1cncc(-c2cc([C@H]3CC[C@H](O)CC3)n3nc(N[C@@H](C)CC(F)(F)F)ncc23)c1 [Compound 278] | ≤ 100 | ≤ 100 | +++ (“+++” represents a ratio of >100) |
| COC[C@H](C)Nc1ncc2c(-c3cnn(C4CC(C(=O)OC)C4)c3)cc([C@H]3CC[C@H](O)CC3)n2n1 (stereo partly drawn) [Compound 330] | ≤ 100 | ≤ 100 | +++ (“+++” represents a ratio of >100) |
| C[C@@H](CC(F)(F)F)Nc1ncc2c(-c3cncc(C(=O)O)c3)cc([C@H]3CC[C@H](O)CC3)n2n1 [Compound 298] | ≤ 100 | ≤ 100 | +++ (“+++” represents a ratio of >100) |
| Cc1cc(-c2cc([C@H]3CC[C@H](O)CC3)n3nc(N[C@@H](C)C(F)F)ncc23)ccn1 [Compound 309] | ≤ 100 | ≤ 100 | +++ (“+++” represents a ratio of >100) |
| COC[C@H](C)Nc1ncc2c(-c3cnn(C4CN(CC(F)(F)F)C4)c3)cc([C@H]3CC[C@H](O)CC3)n2n1 [Compound 302] | ≤ 100 | ≤ 100 | +++ (“+++” represents a ratio of >100) |
| COC[C@H](C)Nc1ncc2c(-c3cnn(CC4CNC(=O)C4)c3)cc([C@H]3CC[C@H](O)CC3)n2n1 (stereo partly drawn) [Compound 303] | ≤ 100 | ≤ 100 | +++ (“+++” represents a ratio of >100) |
| COC[C@H](C)Nc1ncc2c(-c3cnn(Cc4nc(C)no4)c3)cc([C@H]3CC[C@H](O)CC3)n2n1 [Compound 292] | ≤ 100 | ≤ 100 | +++ (“+++” represents a ratio of >100) |
| CNC(=O)c1cncc(-c2cc([C@H]3CC[C@H](O)CC3)n3nc(N[C@@H](C)CC(F)(F)F)ncc23)c1 [Compound 304] | ≤ 100 | ≤ 100 | +++ (“+++” represents a ratio of >100) |
| CCCCC[C@H](C)Nc1ncc2c(N3CCC(N(C)C)CC3)cc(C3CCC(O)CC3)n2n1.Cl (stereo partly drawn) [Compound 115, 4-[5-[4-(dimethylamino)-1-piperidyl]-2-[[(1S)-1-methylhexyl]amino]pyrrolo[2,1-f][1,2,4]triazin-7-yl]cyclohexanol hydrochloride] | 100 to 1000 | ≤ 100 | ++ (“++” represents a ratio of between 10 and 100) |
| COC[C@H](C)Nc1ncc2c(-c3cnn(C(C)(C)C(=O)N4C[C@@H](C)O[C@@H](C)C4)c3)cc([C@H]3CC[C@H](O)CC3)n2n1 [Compound 320] | ≤ 100 | ≤ 100 | +++ (“+++” represents a ratio of >100) |
| CNS(=O)(=O)c1cncc(-c2cc([C@H]3CC[C@H](O)CC3)n3nc(N[C@@H](C)COC)ncc23)c1 [Compound 272] | 100 to 1000 | ≤ 100 | +++ (“+++” represents a ratio of >100) |
| COC[C@H](C)Nc1ncc2c(-c3cnn(Cc4cncc(C)n4)c3)cc([C@H]3CC[C@H](O)CC3)n2n1 [Compound 329] | ≤ 100 | ≤ 100 | +++ (“+++” represents a ratio of >100) |
| CC(CC(F)(F)F)Nc1ncc2c(-c3cncc(S(C)(=O)=O)c3)cc(C3CCC(O)CC3)n2n1 (stereo not drawn) [Compound 273] | ≤ 100 | ≤ 100 | +++ (“+++” represents a ratio of >100) |
| CC[C@H](C)Nc1ncc2c(-c3ccc(CN4CCN(C)CC4)cc3)cc([C@H]3CC[C@H](O)CC3)n2n1 [Compound 118] | ≤ 100 | ≤ 100 | ++ (“++” represents a ratio of between 10 and 100) |
| CNC(=O)C(C)(C)n1cc(-c2cc([C@H]3CC[C@H](O)CC3)n3nc(N[C@@H](C)COC)ncc23)cn1 [Compound 295] | ≤ 100 | ≤ 100 | +++ (“+++” represents a ratio of >100) |
| CNc1c(N[C@H]2CC[C@H](c3cc(-c4ccc(CN5CCOCC5)cc4)c4cnc(N[C@@H](C)COC)nn43)CC2)c(=O)c1=O [Compound 316, 3-(((trans)-4-(2-(((S)-1-methoxypropan-2-yl)amino)-5-(4-(morpholinomethyl)phenyl)pyrrolo[2,1-f][1,2,4]triazin-7-yl)cyclohexyl)amino)-4-(methylamino)cyclobut-3-ene-1,2-dione] | ≤ 100 | ≤ 100 | ++ (“++” represents a ratio of between 10 and 100) |

Continued, values first:

| IC50 (AXL) [nM] | IC50 (MERTK) [nM] | FLT3/Mer ratio (FLT3 IC50/Mer IC50) (MERTK) | Structure (SMILES) |
| --- | --- | --- | --- |
| ≤ 100 | ≤ 100 | +++ (“+++” represents a ratio of >100) | COC[C@H](C)Nc1ncc2c(-c3cnn(C(C)(C)C(=O)N4CCC4)c3)cc([C@H]3CC[C@H](O)CC3)n2n1 [Compound 283] |
| ≤ 100 | ≤ 100 | +++ (“+++” represents a ratio of >100) | CCCCC[C@H](C)Nc1ncc2c(N3CCNCC3)cc([C@H]3CC[C@H](O)CC3)n2n1 [Compound 114] |
| ≤ 100 | ≤ 100 | +++ (“+++” represents a ratio of >100) | COC[C@H](C)Nc1ncc2c(-c3cnn(C(C)(C)C(=O)N4C[C@H](C)O[C@@H](C)C4)c3)cc([C@H]3CC[C@H](O)CC3)n2n1 [Compound 328] |
| ≤ 100 | ≤ 100 | +++ (“+++” represents a ratio of >100) | COC[C@H](C)Nc1ncc2c(-c3cnn(C(C)(C)C(=O)N4CCOCC4)c3)cc([C@H]3CC[C@H](O)CC3)n2n1 [Compound 282] |
| ≤ 100 | ≤ 100 | +++ (“+++” represents a ratio of >100) | COC[C@H](C)Nc1ncc2c(-c3cnn(Cc4cnccn4)c3)cc([C@H]3CC[C@H](O)CC3)n2n1 [Compound 305] |
| ≤ 100 | ≤ 100 | +++ (“+++” represents a ratio of >100) | COC[C@H](C)Nc1ncc2c(-c3cnn(Cc4ccc(S(C)(=O)=O)cc4)c3)cc([C@H]3CC[C@H](O)CC3)n2n1 [Compound 314] |
| ≤ 100 | ≤ 100 | +++ (“+++” represents a ratio of >100) | COC[C@H](C)Nc1ncc2c(-c3cnn(Cc4cn[nH]c4)c3)cc([C@H]3CC[C@H](O)CC3)n2n1 [Compound 332] |
| ≤ 100 | ≤ 100 | +++ (“+++” represents a ratio of >100) | COC[C@H](C)Nc1ncc2c(-c3cnn(Cc4ccnnc4)c3)cc([C@H]3CC[C@H](O)CC3)n2n1 [Compound 281] |
